Test results from patent US11691950B2, “Isoquinoline-steroid conjugates and uses thereof” (priority 2018, dated 2023).
Where a name gives a salt, the structure may show the parent alone.

What was measured:
[1] = system: TNFα; assay: TNFα secretion assay (LPS-treated RAW264.7 macrophages, ELISA); format: cell-based, murine; details: RAW264.7 cells, 4 hrs
Procedure: The TNFα assay quantifies secreted TNFα from RAW264.7 immortalized murine macrophages as an indicator of inflammation. The cells were concurrently treated with LPS (as an inducer of inflammation) and a titration of test molecules or control compounds for 4 hrs. After the incubation period, the media was harvested and assayed via an ELISA assay. ODs of experimental samples are fit to those of a standard curve to extrapolate the TNFα concentration. IC50 values were calculated by fitting a curve to experimental values with the controls as the top and bottom limits of the curve. Selected compounds provided herein were subjected to this assay.

[2] = system: TOX; assay: TOX assay; format: cell-based; details: HCl salt
Procedure: Inhibition of various kinases was assayed.

[3] = system: myeloperoxidase activity; assay: Myeloperoxidase (MPO) activity after intravitreal LPS in mice; format: in vivo, C57B16 male mice; details: dosed at 0 and 6 hours, collected 24 hours
Procedure: Adult C57B16 male mice were injected with 2 ng of lipopolysaccharide (LPS) intravitreally. The mice were then dosed with vehicle, compounds or control treatments (0.07% w/w, 0.02% w/w or 0.007% w/w) at times 0 and 6 hours post-injection. Aqueous humor (AH) and vitreous humor (VH) was collected 24 hours after injection of LPS and assayed for MPO activity by ELISA. Data is a compilation of two separate experiments. Statistical analysis was carried out on GraphPad prism using a multiple comparisons 1-way ANOVA with uncorrected Dunn's test. Results are shown in FIG. 5 (aqueous humor) and FIG. 6 (vitreous humor). In FIG. 5 and FIG. 6, Dex refers to dexamethasone, Compound A refers to (S)-3-amino-2-(4-(hydroxymethyl)phenyl)-N-(isoquinolin-6-yl)propanamide, *refers to p<0.05, and **refers to p<0.005. MPO levels correspond to levels of neutrophil infiltration. In the context of non-infectious inflammatory events, neutrophils cause robust levels of damage to tissues.

Question: `CC(C)(C)OC(=O)NC[C@@H](C(=O)Nc1ccc2cnccc2c1)c1ccc(COC(=O)CCC(=O)OCC(=O)[C@@]2(O)CC[C@H]3[C@@H]4CCC5=CC(=O)C=C[C@]5(C)[C@H]4[C@@H](O)C[C@@]32C)cc1` [Example 14] was tested. Which IC50 [1] did it give?
Answer: Its IC50 is 0.621 µM.

Question: Which IC50 [2] does the source give for `C[C@@H]1C[C@H]2[C@@H]3CCC4=CC(=O)C=C[C@]4(C)[C@@]3(F)[C@@H](O)C[C@]2(C)[C@@]1(O)C(=O)COC(=O)CCC(=O)OCc1ccc([C@@H](CN)C(=O)Nc2ccc3cnccc3c2)cc1` [Example 25] here?
Answer: Its IC50 is 100 µM.

Question: With `C[C@@H]1C[C@H]2[C@@H]3CCC4=CC(=O)C=C[C@]4(C)[C@@]3(F)[C@@H](O)C[C@]2(C)[C@@]1(O)C(=O)COC(=O)C1CC1C(=O)OCc1ccc([C@@H](CN)C(=O)Nc2ccc3cnccc3c2)cc1` (some centres unmarked) [Example 27] as the molecule, how does the IC50 [2] read?
Answer: Its IC50 is 100 µM.

Question: How did the “myeloperoxidase activity in aqueous humor” value ([3]; FIG. 5) turn out when `CC1(C)O[C@@H]2C[C@H]3[C@@H]4CCC5=CC(=O)C=C[C@]5(C)[C@@]4(F)[C@@H](O)C[C@]3(C)[C@]2(C(=O)COC(=O)CCC(=O)OCc2ccc([C@@H](CN)C(=O)Nc3ccc4cnccc4c3)cc2)O1` [Example 33] was run?
Answer: The value was “inhibiting effect”.

Question: What about the “myeloperoxidase activity in vitreous humor” value ([3]; FIG. 6) of the same molecule?
Answer: Its value is “inhibiting effect”.

Question: What about the IC50 [2] of the same molecule?
Answer: Its IC50 is 55.2 µM.

Question: With `C[C@@H]1C[C@H]2[C@@H]3CCC4=CC(=O)C=C[C@]4(C)[C@@]3(F)[C@@H](O)C[C@]2(C)[C@@]1(O)C(=O)COC(=O)c1ccc(C(=O)OCc2ccc([C@@H](CN)C(=O)Nc3ccc4cnccc4c3)cc2)cc1` [Example 66, 4-((S)-3-amino-1-(isoquinolin-6-ylamino)-1-oxopropan-2-yl)benzyl (2-((8S,9R,10S,11S,13S,14S,16R,17R)-9-fluoro-11,17-dihydroxy-10,13,16-trimethyl-3-oxo-6,7,8,9,10,11,12,13,14,15,16,17-dodecahydro-3H-cyclopenta[a]phenanthren-17-yl)-2-oxoethyl) terephthalate dihydrochloride] as the molecule, how does the IC50 [2] read?
Answer: Its IC50 is 100 µM.

Question: For `C[C@@H]1C[C@H]2[C@@H]3CCC4=CC(=O)C=C[C@]4(C)[C@@]3(F)[C@@H](O)C[C@]2(C)[C@@]1(O)C(=O)COC(=O)C[C@H](N)C(=O)OCc1ccc([C@@H](CN)C(=O)Nc2ccc3cnccc3c2)cc1` [Example 83, 1-(4-((S)-3-amino-1-(isoquinolin-6-ylamino)-1-oxopropan-2-yl)benzyl) 4-(2-((8S,9R,10S,11S,13S,14S,16R,17R)-9-fluoro-11,17-dihydroxy-10,13,16-trimethyl-3-oxo-6,7,8,9,10,11,12,13,14,15,16,17-dodecahydro-3H-cyclopenta[a]phenanthren-17-yl)-2-oxoethyl) L-aspartate trihydrochloride], which IC50 [2] is on record?
Answer: The IC50 was 100 µM.
